{"source": "patent US11524966B1", "about": "(Valo Early Discovery, Inc., priority 2017, dated 2022)"}
{"molecular_target": "T1, USP25 (USP25-His6, Boston Biochem E-546) (Homo sapiens, UniProt Q9UHP3)", "T1 construct": "His6; purchased Boston Biochem E-546", "T1 sequence (Q9UHP3 1-1055)": "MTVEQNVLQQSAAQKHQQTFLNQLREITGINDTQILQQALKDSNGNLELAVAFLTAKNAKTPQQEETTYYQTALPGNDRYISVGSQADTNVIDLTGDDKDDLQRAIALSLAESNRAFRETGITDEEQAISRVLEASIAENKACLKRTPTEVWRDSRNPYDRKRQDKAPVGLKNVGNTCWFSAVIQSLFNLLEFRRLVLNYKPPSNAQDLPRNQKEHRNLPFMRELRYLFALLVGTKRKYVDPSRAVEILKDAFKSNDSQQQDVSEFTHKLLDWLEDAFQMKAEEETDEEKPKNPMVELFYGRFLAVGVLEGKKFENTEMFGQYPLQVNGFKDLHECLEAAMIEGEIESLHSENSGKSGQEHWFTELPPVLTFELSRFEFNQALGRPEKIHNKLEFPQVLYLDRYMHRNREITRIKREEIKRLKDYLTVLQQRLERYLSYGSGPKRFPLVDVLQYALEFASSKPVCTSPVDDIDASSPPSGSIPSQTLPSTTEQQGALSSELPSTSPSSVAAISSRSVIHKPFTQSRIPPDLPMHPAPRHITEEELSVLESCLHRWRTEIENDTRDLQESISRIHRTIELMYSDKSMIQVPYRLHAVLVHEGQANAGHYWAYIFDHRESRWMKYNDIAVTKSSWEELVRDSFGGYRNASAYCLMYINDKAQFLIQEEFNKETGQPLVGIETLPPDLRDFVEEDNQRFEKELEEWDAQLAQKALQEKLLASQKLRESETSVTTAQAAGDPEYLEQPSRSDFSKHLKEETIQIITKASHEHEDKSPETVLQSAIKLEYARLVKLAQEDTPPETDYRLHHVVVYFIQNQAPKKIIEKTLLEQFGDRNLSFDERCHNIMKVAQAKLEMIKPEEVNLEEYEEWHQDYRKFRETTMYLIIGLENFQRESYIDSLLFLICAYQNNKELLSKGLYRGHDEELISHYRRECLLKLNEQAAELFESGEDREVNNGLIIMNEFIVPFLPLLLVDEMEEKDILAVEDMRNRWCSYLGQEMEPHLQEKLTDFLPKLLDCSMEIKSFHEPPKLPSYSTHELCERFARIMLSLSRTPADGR", "test": "Ubiquitin-Rhodamine 110 Assay for USP25 Activity, Example A-2", "type": "biochemical", "details": "Ubiquitin-Rhodamine 110 assay, Example A-2; read-out: USP25 A-2 IC50 range", "procedure,_shortened": "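Read-out: Rh110 fluorescence (ex 485, em 535 nm) after 45 min RT turnover of 25 nM Ub-Rh110 by 75 pM USP25-His6, quenched with 10 mM citric acid. Compounds at 25 μM–1.3 nM, preincubated 30 min with enzyme. IC50 from 4-parameter logistic fit.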", "units": {"IC50": "µM"}}
{"compound": "O=C(N[C@@H]1CCc2c(c(F)cc(N3CC4CCC(C3)N4)c2C(F)F)C1)c1cnc2c(c1)[C@H]1C[C@H]1CN2", "note": "(single isomer, unassigned) [Example 362]", "IC50": "0.2 to 2"}
{"compound": "Cc1ccc2c(N)c(C(=O)N[C@H]3COc4cc(N5CCC(F)(F)CC5)ccc4C3)sc2n1", "note": "[Example 5-1, (R)-3-amino-N-(7-(4,4-difluoropiperidin-1-yl)chroman-3-yl)-6-methylthieno[2,3-b]pyridine-2-carboxamide]", "IC50": "0.05 to 0.2"}
{"compound": "O=C(N[C@H]1COc2cc(N3CCNCC3)ccc2C1)c1ccc(NCc2cccc(C(F)(F)F)c2)nc1", "note": "[Example 469, (R)-N-(7-(piperazin-1-yl)chroman-3-yl)-6-((3-(trifluoromethyl)benzyl)amino)nicotinamide]", "IC50": "0.05 to 0.2"}
{"compound": "Cc1ccc2c(N)c(C(=O)N[C@H]3CCc4nc(N5C[C@H](N)[C@@]6(CCCO6)C5)ccc4C3)sc2n1", "note": "[Example 393, 3-amino-N-[(6S)-2-[(5R,9S)-9-amino-1-oxa-7-azaspiro[4.4]nonan-7-yl]-5,6,7,8-tetrahydroquinolin-6-yl]-6-methylthieno[2,3-b]pyridine-2-carboxamide]", "IC50": "> 2"}
{"compound": "Cc1cnc2c(N)c(C(=O)N[C@@H]3CCc4cc(N5CC6CNCC(C5)O6)ccc4C3)sc2n1", "note": "[Example 450, N-((2R)-6-(9-oxa-3,7-diazabicyclo[3.3.1]nonan-3-yl)-1,2,3,4-tetrahydronaphthalen-2-yl)-7-amino-3-methylthieno[2,3-b]pyrazine-6-carboxamide]", "IC50": "> 2"}
{"compound": "CCn1cc(Cl)c2cc(C(=O)N[C@H]3COc4c(C#N)c(N5CC6CCC(C5)N6)cc(F)c4C3)nnc21", "note": "[Example 356, 5-chloro-N-[(3R)-8-cyano-7-{3,8-diazabicyclo[3.2.1]octan-3-yl}-5-fluoro-3,4-dihydro-2H-1-benzopyran-3-yl]-7-ethyl-7H-pyrrolo[2,3-c]pyridazine-3-carboxamide]", "IC50": "0.2 to 2"}
{"compound": "COC[C@H]1CN(c2ccc3c(n2)OC[C@H](NC(=O)c2sc4nc(C)cc(C)c4c2N)C3)C[C@H]1N", "note": "[Example 349, 3-amino-N-[(3R)-7-[(3S,4S)-3-amino-4-(methoxymethyl)pyrrolidin-1-yl]-2H,3H,4H-pyrano[2,3-b]pyridin-3-yl]-4,6-dimethylthieno[2,3-b]pyridine-2-carboxamide]", "IC50": "0.2 to 2"}
{"compound": "CCn1ccc2cc(C(=O)N[C@H]3CCc4nc(N5C[C@H](OC)[C@@H](N)C5)ccc4C3)cnc21", "note": "[Example 353, N-[(6S)-2-[(3S,4S)-3-amino-4-methoxypyrrolidin-1-yl]-5,6,7,8-tetrahydroquinolin-6-yl]-1-ethyl-1H-pyrrolo[2,3-b]pyridine-5-carboxamide]", "IC50": "> 2"}
{"compound": "CCc1cccc2c(C(=O)N[C@H]3COc4cc(N5CCNCC5)ccc4C3)cnn12", "note": "[Example 474, 7-ethyl-N-[(3R)-7-(piperazin-1-yl)-3,4-dihydro-2H-1-benzopyran-3-yl]pyrazolo[1,5-a]pyridine-3-carboxamide]", "IC50": "0.2 to 2"}
{"compound": "O=C(N[C@H]1COc2cc(N3CCNCC3)ccc2C1)c1cnn2ccccc12", "note": "[Example 460, (R)-N-(7-(piperazin-1-yl)chroman-3-yl)pyrazolo[1,5-a]pyridine-3-carboxamide]", "IC50": "> 2"}
{"compound": "Cc1ccc2c(N)c(C(=O)N[C@H]3CCc4nc(N5C[C@@H](N)[C@@H](C(F)F)C5)ccc4C3)sc2n1", "note": "[Example 346, 3-amino-N-[(6S)-2-[(3S,4S)-3-amino-4-(difluoromethyl)pyrrolidin-1-yl]-5,6,7,8-tetrahydroquinolin-6-yl]-6-methylthieno[2,3-b]pyridine-2-carboxamide]", "IC50": "0.2 to 2"}
{"compound": "Cc1cnc2c(N)c(C(=O)N[C@H]3CCc4cc(N5CC6COCC(C5)N6)ccc4C3)sc2n1", "note": "[Example 456, N-((2S)-6-(3-oxa-7,9-diazabicyclo[3.3.1]nonan-7-yl)-1,2,3,4-tetrahydronaphthalen-2-yl)-7-amino-3-methylthieno[2,3-b]pyrazine-6-carboxamide]", "IC50": "> 2"}
{"compound": "Cc1ccc2c(N)c(C(=O)N[C@H]3COc4c(cc(F)c(N5CCNCC5)c4F)C3)sc2n1", "note": "(single isomer, unassigned) [Example 3-17]", "IC50": "0.05 to 0.2"}
{"compound": "Cc1cc(C)n2ncc(C(=O)N[C@H]3COc4cc(N5CCNCC5)ccc4C3)c2n1", "note": "[Example 463, (R)-5,7-dimethyl-N-(7-(piperazin-1-yl)chroman-3-yl)pyrazolo[1,5-a]pyrimidine-3-carboxamide]", "IC50": "> 2"}
{"compound": "COc1ccn2ncc(C(=O)N[C@H]3COc4cc(N5CCNCC5)ccc4C3)c2c1", "note": "[Example 461, (R)-5-methoxy-N-(7-(piperazin-1-yl)chroman-3-yl)pyrazolo[1,5-a]pyridine-3-carboxamide]", "IC50": "> 2"}
{"compound": "O=C(N[C@H]1COc2cc(N3CC4CCC(C3)N4)ccc2C1)c1cnc2c(c1)[C@H]1C[C@H]1CN2", "note": "[Example 3-16, (1aR,7bS)-N-((3R)-7-(3,8-diazabicyclo[3.2.1]octan-3-yl)chroman-3-yl)-1a,2,3,7b-tetrahydro-1H-cyclopropa[c][1,8]naphthyridine-6-carboxamide]", "IC50": "> 2"}
{"compound": "Cc1ccc2c(N)c(C(=O)N[C@H]3COc4cc(N5CCC(C(=O)O)CC5)ccc4C3)sc2n1", "note": "[Example 6-1, (R)-1-(3-(3-Amino-6-methylthieno[2,3-b]pyridine-2-carboxamido)chroman-7-yl)piperidine-4-carboxylic Acid]", "IC50": "> 2"}
{"compound": "O=C(N[C@H]1COc2cc(N3CCNCC3)ccc2C1)c1ccc(NCc2ccc3c(c2)OCCO3)nc1", "note": "[Example 471, (R)-6-(((2,3-dihydrobenzo[b][1,4]dioxin-6-yl)methyl)amino)-N-(7-(piperazin-1-yl)chroman-3-yl)nicotinamide]", "IC50": "0.2 to 2"}
{"compound": "Cc1ccc2c(N)c(C(=O)N[C@H]3COc4cc(N5CC[C@H](N)C5)ccc4C3)sc2n1", "note": "[Example 369, 3-amino-N-[(3R)-7-[(3S)-3-aminopyrrolidin-1-yl]-3,4-dihydro-2H-1-benzopyran-3-yl]-6-methylthieno[2,3-b]pyridine-2-carboxamide]", "IC50": "0.05 to 0.2"}
{"compound": "Cc1ccc2c(N)c(C(=O)N[C@H]3COc4cc(N5CCC[C@@](C)(O)C5)ccc4C3)sc2n1", "note": "[Example 7-3, 3-amino-N-((R)-7-((R)-3-hydroxy-3-methylpiperidin-l-yl)chroman-3-yl)-6-methylthieno[2,3-b]pyridine-2-carboxamide]", "IC50": "0.2 to 2"}
{"compound": "Cc1ccc2c(N)c(C(=O)N[C@H]3CCc4nc(N5C[C@H](N)[C@]6(CCCO6)C5)ccc4C3)sc2n1", "note": "[Example 390, 3-amino-N-[(6S)-2-[(5S,9S)-9-amino-1-oxa-7-azaspiro[4.4]nonan-7-yl]-5,6,7,8-tetrahydroquinolin-6-yl]-6-methylthieno[2,3-b]pyridine-2-carboxamide]", "IC50": "> 2"}
{"compound": "Cc1cnc2c(N)c(C(=O)N[C@@H]3CCc4cc(N5CCCNCC5)ccc4C3)sc2n1", "note": "[Example 452, (R)-N-(6-(1,4-diazepan-1-yl)-1,2,3,4-tetrahydronaphthalen-2-yl)-7-amino-3-methylthieno[2,3-b]pyrazine-6-carboxamide]", "IC50": "> 2"}
{"compound": "Cc1cnc2c(N)c(C(=O)N[C@H]3CCc4cc(N5CC6CNCC(C5)O6)ccc4C3)sc2n1", "note": "[Example 448, N-((2S)-6-(9-oxa-3,7-diazabicyclo[3.3.1]nonan-3-yl)-1,2,3,4-tetrahydronaphthalen-2-yl)-7-amino-3-methylthieno[2,3-b]pyrazine-6-carboxamide]", "IC50": "0.2 to 2"}
{"compound": "Cc1ccc2c(N)c(C(=O)N[C@H]3COc4cc(N5CC6COCC(C5)C6(F)F)ccc4C3)sc2n1", "note": "[Example 5-4, 3-amino-N-((3R)-7-(9,9-difluoro-3-oxa-7-azabicyclo[3.3.1]nonan-7-yl)chroman-3-yl)-6-methylthieno[2,3-b]pyridine-2-carboxamide]", "IC50": "0.05 to 0.2"}
{"compound": "Cc1ccc2c(N)c(C(=O)N[C@H]3COc4cc(N5CCS(=O)(=O)CC5)ccc4C3)sc2n1", "note": "[Example 5-2, (R)-3-amino-N-(7-(1,1-dioxidothiomorpholino)chroman-3-yl)-6-methylthieno[2,3-b]pyridine-2-carboxamide]", "IC50": "0.05 to 0.2"}
{"compound": "Cc1ccc2c(N)c(C(=O)N[C@H]3COc4cc(N5CCN[C@H](C(F)(F)F)C5)ccc4C3)sc2n1", "note": "[Example 3-12, 3-amino-6-methyl-N-((R)-7-((S)-3-(trifluoromethyl)piperazin-1-yl)chroman-3-yl)thieno[2,3-b]pyridine-2-carboxamide]", "IC50": "0.2 to 2"}
